Source: ChEMBL document CHEMBL4507304, “Data for DCP probe TP-021” (2021)

How the values were obtained:
[1] = biological target: Mitogen-activated protein kinase 15 (Homo sapiens) (UniProt Q8TD08); conditions: Compound concentration 1000.0 nM
[2] = tested on: Tyrosine-protein kinase ABL1 (Homo sapiens), P00519 [F317I]; conditions: Compound concentration 1000.0 nM
[3] = biological target: Serine/threonine-protein kinase TAO3 (Homo sapiens) (UniProt Q9H2K8); conditions: Compound concentration 1000.0 nM
[4] = biological target: Dual specificity protein kinase CLK1 (Homo sapiens) (UniProt P49759); conditions: Compound concentration 1000.0 nM
[5] = biological target: Serine/threonine-protein kinase WNK1 (Homo sapiens) (UniProt Q9H4A3); conditions: Compound concentration 1000.0 nM
[6] = biological target: G protein-coupled receptor kinase 4 (Homo sapiens) (UniProt P32298); conditions: Compound concentration 1000.0 nM
[7] = biological target: Serine/threonine-protein kinase WNK3 (Homo sapiens) (UniProt Q9BYP7); conditions: Compound concentration 1000.0 nM
[8] = biological target: Serine/threonine-protein kinase 33 (Homo sapiens) (UniProt Q9BYT3); conditions: Compound concentration 1000.0 nM
[9] = biological target: Cyclin-dependent kinase 4 (Homo sapiens) (UniProt P11802); conditions: Compound concentration 1000.0 nM
[10] = biological target: Dual specificity protein kinase TTK (Homo sapiens) (UniProt P33981); conditions: Compound concentration 1000.0 nM
[11] = biological target: Proto-oncogene tyrosine-protein kinase receptor Ret (Homo sapiens) (UniProt P07949); conditions: Compound concentration 1000.0 nM
[12] = biological target: Serine/threonine-protein kinase Chk1 (Homo sapiens) (UniProt O14757); conditions: Compound concentration 1000.0 nM
[13] = biological target: Myosin light chain kinase, smooth muscle (Homo sapiens) (UniProt Q15746); conditions: Compound concentration 1000.0 nM
[14] = biological target: Cyclin-dependent kinase 5 (Homo sapiens) (UniProt Q00535); conditions: Compound concentration 1000.0 nM
[15] = biological target: Mitogen-activated protein kinase kinase kinase 7 (Homo sapiens) (UniProt O43318); conditions: Compound concentration 1000.0 nM
[16] = biological target: Homeodomain-interacting protein kinase 2 (Homo sapiens) (UniProt Q9H2X6); conditions: Compound concentration 1000.0 nM
[17] = biological target: Eukaryotic translation initiation factor 2-alpha kinase 1 (Homo sapiens) (UniProt Q9BQI3); conditions: Compound concentration 1000.0 nM
[18] = tested on: Epidermal growth factor receptor (Homo sapiens), P00533 [L861Q]; conditions: Compound concentration 1000.0 nM
[19] = biological target: Bone morphogenetic protein receptor type-2 (Homo sapiens) (UniProt Q13873); conditions: Compound concentration 1000.0 nM
[20] = biological target: Cyclin-dependent kinase 4 (Homo sapiens) (UniProt P11802); conditions: Compound concentration 1000.0 nM; remark: listed apart in the source
[21] = biological target: Myosin-IIIa (Homo sapiens) (UniProt Q8NEV4); conditions: Compound concentration 1000.0 nM
[22] = biological target: Ribosomal protein S6 kinase alpha-4 (Homo sapiens) (UniProt O75676); conditions: Compound concentration 1000.0 nM
[23] = tested on: ALK tyrosine kinase receptor (Homo sapiens), Q9UM73 [L1196M]; conditions: Compound concentration 1000.0 nM
[24] = biological target: Ephrin type-B receptor 4 (Homo sapiens) (UniProt P54760); conditions: Compound concentration 1000.0 nM
[25] = biological target: Serine/threonine-protein kinase RIO1 (Homo sapiens) (UniProt Q9BRS2); conditions: Compound concentration 1000.0 nM
[26] = biological target: Casein kinase I isoform gamma-1 (Homo sapiens) (UniProt Q9HCP0); conditions: Compound concentration 1000.0 nM
[27] = biological target: Homeodomain-interacting protein kinase 3 (Homo sapiens) (UniProt Q9H422); conditions: Compound concentration 1000.0 nM
[28] = biological target: Ephrin type-A receptor 7 (Homo sapiens) (UniProt Q15375); conditions: Compound concentration 1000.0 nM
[29] = biological target: Tyrosine-protein kinase JAK1 (Homo sapiens) (UniProt P23458); conditions: Compound concentration 1000.0 nM
[30] = tested on: Epidermal growth factor receptor (Homo sapiens), P00533 [UNDEFINED MUTATION]; conditions: Compound concentration 1000.0 nM
[31] = biological target: Proto-oncogene tyrosine-protein kinase Src (Homo sapiens) (UniProt P12931); conditions: Compound concentration 1000.0 nM
[32] = biological target: Serine/threonine-protein kinase Nek6 (Homo sapiens) (UniProt Q9HC98); conditions: Compound concentration 1000.0 nM
[33] = biological target: Vascular endothelial growth factor receptor 2 (Homo sapiens) (UniProt P35968); conditions: Compound concentration 1000.0 nM
[34] = biological target: Phosphatidylinositol 5-phosphate 4-kinase type-2 gamma (Homo sapiens) (UniProt Q8TBX8); conditions: Compound concentration 1000.0 nM
[35] = tested on: Mast/stem cell growth factor receptor Kit (Homo sapiens), P10721 [A829P]; conditions: Compound concentration 1000.0 nM
[36] = biological target: Aurora kinase B (Homo sapiens) (UniProt Q96GD4); conditions: Compound concentration 1000.0 nM
[37] = biological target: G protein-coupled receptor kinase 3 (Homo sapiens) (UniProt P35626); conditions: Compound concentration 1000.0 nM
[38] = biological target: Sodium-dependent dopamine transporter (Homo sapiens) (UniProt Q01959); conditions: Compound concentration 10.0 uM
[39] = biological target: Cyclin-dependent kinase 4 (Homo sapiens) (UniProt P11802); conditions: Compound concentration 1000.0 nM; remark: listed apart in the source
[40] = biological target: Calcium/calmodulin-dependent protein kinase kinase 1 (Homo sapiens) (UniProt Q8N5S9); conditions: Compound concentration 1000.0 nM
[41] = biological target: Tyrosine-protein kinase Mer (Homo sapiens) (UniProt Q12866); conditions: Compound concentration 1000.0 nM
[42] = biological target: Tyrosine-protein kinase Lck (Homo sapiens) (UniProt P06239); conditions: Compound concentration 1000.0 nM
[43] = biological target: 5-hydroxytryptamine receptor 3A (Homo sapiens) (UniProt P46098); conditions: Compound concentration 10.0 uM
[44] = biological target: Phosphatidylinositol 4,5-bisphosphate 3-kinase catalytic subunit gamma isoform (Homo sapiens) (UniProt P48736); conditions: Compound concentration 1000.0 nM
[45] = biological target: MAP/microtubule affinity-regulating kinase 4 (Homo sapiens) (UniProt Q96L34); conditions: Compound concentration 1000.0 nM
[46] = biological target: Delta-type opioid receptor (Homo sapiens) (UniProt P41143); conditions: Compound concentration 10.0 uM

Chain of Cyclin-dependent kinase 4 (Homo sapiens) (P11802 whole entry): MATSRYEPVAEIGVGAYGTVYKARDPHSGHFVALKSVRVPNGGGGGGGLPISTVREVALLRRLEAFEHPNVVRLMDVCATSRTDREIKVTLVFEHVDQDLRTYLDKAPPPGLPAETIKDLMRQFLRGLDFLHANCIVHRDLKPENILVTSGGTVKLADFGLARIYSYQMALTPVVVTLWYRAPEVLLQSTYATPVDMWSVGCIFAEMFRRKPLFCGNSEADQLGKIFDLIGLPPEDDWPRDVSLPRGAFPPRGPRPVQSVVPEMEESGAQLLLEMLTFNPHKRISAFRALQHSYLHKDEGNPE
Chain of Bone morphogenetic protein receptor type-2 (Homo sapiens) (Q13873 whole entry): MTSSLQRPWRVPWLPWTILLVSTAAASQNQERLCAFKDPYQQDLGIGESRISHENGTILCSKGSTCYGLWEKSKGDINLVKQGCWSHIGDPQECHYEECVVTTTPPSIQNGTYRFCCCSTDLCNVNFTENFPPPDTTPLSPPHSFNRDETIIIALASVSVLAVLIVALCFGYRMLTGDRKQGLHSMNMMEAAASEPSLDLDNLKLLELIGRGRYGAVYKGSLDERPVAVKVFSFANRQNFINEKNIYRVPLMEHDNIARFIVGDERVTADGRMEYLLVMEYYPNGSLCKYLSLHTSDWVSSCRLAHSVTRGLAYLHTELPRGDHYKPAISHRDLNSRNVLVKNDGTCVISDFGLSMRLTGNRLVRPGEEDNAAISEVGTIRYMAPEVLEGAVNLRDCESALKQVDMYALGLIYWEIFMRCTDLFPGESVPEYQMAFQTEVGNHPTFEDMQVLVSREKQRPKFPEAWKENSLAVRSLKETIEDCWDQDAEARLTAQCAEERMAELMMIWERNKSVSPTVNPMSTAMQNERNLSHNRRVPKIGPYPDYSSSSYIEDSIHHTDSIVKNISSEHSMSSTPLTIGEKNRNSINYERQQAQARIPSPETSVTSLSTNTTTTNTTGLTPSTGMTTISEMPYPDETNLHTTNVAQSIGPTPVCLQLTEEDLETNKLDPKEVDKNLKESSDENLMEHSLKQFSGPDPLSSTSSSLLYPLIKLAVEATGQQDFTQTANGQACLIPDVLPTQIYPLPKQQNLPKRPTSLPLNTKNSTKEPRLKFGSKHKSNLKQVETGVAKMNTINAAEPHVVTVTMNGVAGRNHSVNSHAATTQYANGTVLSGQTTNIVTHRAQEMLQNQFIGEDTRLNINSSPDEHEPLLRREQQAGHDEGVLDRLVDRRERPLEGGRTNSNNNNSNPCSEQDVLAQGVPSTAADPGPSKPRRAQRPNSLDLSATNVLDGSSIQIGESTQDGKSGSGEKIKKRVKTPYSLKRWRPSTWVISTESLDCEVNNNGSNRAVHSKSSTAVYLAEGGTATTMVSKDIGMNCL
Chain of Serine/threonine-protein kinase 33 (Homo sapiens) (Q9BYT3 whole entry, looked up): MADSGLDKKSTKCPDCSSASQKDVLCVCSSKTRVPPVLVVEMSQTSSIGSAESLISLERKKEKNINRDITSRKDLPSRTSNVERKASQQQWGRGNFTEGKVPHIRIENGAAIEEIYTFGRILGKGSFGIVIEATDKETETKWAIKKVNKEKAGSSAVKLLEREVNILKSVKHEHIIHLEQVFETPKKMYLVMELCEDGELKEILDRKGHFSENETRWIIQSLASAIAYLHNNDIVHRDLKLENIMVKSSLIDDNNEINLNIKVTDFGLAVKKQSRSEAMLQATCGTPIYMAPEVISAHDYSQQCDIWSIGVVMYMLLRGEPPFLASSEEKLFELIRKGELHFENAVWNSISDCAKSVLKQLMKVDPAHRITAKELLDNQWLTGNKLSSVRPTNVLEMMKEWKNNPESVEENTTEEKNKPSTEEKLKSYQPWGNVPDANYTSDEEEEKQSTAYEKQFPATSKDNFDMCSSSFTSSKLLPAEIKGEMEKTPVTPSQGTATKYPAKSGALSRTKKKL
Chain of Tyrosine-protein kinase JAK1 (Homo sapiens) (P23458 whole entry): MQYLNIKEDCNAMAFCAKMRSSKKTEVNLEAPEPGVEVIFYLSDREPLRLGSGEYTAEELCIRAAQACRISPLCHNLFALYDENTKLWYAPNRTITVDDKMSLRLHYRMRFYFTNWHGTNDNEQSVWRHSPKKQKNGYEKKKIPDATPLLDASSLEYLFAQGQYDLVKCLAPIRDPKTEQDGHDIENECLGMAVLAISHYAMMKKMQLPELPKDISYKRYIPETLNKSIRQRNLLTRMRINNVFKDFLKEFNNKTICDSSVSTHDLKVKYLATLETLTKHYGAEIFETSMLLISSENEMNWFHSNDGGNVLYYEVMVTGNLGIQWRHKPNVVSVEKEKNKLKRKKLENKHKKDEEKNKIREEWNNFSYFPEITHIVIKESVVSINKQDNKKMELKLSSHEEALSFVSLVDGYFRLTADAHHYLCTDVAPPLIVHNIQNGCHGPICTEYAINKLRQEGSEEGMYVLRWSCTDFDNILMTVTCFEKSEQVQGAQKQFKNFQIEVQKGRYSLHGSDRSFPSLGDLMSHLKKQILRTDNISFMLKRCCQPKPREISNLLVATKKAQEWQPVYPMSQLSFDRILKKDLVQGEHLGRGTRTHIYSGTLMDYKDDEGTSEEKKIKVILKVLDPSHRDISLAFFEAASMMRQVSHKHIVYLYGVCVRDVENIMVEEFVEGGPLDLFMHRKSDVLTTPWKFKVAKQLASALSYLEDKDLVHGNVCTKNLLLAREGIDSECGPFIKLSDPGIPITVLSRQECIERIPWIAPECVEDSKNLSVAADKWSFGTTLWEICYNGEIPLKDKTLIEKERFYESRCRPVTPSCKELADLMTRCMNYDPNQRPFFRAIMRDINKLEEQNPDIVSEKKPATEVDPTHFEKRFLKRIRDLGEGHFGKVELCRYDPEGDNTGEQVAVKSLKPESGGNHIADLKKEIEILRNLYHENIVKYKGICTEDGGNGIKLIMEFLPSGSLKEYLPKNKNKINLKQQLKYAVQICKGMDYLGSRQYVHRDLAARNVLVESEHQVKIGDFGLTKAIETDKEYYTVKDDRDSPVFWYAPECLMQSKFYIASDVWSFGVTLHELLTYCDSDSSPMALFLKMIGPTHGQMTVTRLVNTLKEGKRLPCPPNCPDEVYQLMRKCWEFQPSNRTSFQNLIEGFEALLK
Chain of Aurora kinase B (Homo sapiens) (Q96GD4 whole entry): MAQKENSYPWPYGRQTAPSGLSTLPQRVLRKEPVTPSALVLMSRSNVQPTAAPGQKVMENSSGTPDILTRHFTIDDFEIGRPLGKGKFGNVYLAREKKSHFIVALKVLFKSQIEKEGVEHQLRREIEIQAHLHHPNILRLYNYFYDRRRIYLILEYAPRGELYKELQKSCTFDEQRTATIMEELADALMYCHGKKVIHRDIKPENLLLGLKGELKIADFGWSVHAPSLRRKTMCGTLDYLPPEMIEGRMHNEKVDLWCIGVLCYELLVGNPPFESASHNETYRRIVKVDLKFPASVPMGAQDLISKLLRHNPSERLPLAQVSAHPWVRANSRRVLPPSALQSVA
Chain of Myosin-IIIa (Homo sapiens) (Q8NEV4 whole entry): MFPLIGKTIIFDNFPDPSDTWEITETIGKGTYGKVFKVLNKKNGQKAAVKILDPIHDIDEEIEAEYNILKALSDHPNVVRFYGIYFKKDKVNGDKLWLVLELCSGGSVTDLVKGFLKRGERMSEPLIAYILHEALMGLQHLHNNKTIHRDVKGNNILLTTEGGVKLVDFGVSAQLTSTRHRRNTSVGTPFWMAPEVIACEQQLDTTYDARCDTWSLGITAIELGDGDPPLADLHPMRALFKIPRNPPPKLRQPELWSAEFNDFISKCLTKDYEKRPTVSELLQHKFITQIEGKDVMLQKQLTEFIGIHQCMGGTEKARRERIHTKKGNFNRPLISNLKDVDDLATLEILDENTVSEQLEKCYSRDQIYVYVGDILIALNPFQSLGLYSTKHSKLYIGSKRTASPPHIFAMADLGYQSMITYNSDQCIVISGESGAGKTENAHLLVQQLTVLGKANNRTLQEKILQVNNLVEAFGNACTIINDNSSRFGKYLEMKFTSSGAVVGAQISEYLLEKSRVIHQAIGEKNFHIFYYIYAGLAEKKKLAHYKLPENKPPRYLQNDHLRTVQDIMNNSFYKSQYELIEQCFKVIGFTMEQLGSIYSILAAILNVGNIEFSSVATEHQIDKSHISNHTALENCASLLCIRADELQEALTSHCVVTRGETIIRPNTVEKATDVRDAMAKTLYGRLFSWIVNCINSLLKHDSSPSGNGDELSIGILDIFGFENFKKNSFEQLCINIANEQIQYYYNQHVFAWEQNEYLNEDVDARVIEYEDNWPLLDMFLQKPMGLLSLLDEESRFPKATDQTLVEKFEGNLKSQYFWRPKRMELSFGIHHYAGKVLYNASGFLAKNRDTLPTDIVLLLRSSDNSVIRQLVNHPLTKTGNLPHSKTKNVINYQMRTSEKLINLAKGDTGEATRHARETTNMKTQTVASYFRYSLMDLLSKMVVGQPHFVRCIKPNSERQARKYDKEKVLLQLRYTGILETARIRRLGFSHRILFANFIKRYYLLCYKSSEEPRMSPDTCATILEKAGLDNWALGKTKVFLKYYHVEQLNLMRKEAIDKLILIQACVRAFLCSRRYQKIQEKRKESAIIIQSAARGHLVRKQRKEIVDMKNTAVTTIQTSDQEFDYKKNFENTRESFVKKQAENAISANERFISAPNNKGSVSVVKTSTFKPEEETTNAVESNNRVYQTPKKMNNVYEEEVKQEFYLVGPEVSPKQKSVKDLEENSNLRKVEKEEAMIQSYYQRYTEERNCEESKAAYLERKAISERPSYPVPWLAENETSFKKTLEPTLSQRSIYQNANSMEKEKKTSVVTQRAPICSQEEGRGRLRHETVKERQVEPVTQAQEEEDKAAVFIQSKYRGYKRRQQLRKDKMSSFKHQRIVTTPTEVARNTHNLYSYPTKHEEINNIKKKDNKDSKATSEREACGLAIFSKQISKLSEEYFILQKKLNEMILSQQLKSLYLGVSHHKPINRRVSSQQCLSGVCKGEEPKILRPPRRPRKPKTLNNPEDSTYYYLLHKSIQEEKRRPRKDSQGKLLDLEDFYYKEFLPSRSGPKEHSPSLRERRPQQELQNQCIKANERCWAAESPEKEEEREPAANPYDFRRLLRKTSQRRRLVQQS

N#Cc1ccc(Nc2ccc3[nH]c(=O)[nH]c3c2)c(Cl)c1
inactive: residual activity [1] 100% | residual activity [2] 81% | residual activity [3] 100% | residual activity [4] 100% | residual activity [5] 100% | residual activity [6] 100% | residual activity [7] 100% | residual activity [8] 93% | residual activity [9] 86% | residual activity [10] 88% | residual activity [11] 97% | residual activity [12] 98% | residual activity [13] 96% | residual activity [14] 100% | residual activity [15] 90% | residual activity [16] 100% | residual activity [17] 100% | residual activity [18] 100% | residual activity [19] 91% | residual activity [20] 100% | residual activity [21] 97% | residual activity [22] 95% | residual activity [23] 100% | residual activity [24] 98% | residual activity [25] 100% | residual activity [26] 100% | residual activity [27] 94% | residual activity [28] 100% | residual activity [29] 97% | residual activity [30] 100% | residual activity [31] 92% | residual activity [32] 100% | residual activity [33] 99% | residual activity [34] 100% | residual activity [35] 100% | residual activity [36] 85% | residual activity [37] 100% | inhibition [38] 14% | residual activity [39] 91% | residual activity [40] 100% | residual activity [41] 100% | residual activity [42] 100% | inhibition [43] 1.33% | residual activity [44] 92% | residual activity [45] 99% | inhibition [46] -0.28%

O=C1CCc2cc(Nc3cc(OC4CCOCC4)c([N+](=O)[O-])cc3Cl)ccc2N1
inactive: residual activity [1] 96% | residual activity [2] 92% | residual activity [3] 81% | residual activity [4] 84% | residual activity [5] 86% | residual activity [6] 100% | residual activity [7] 87% | residual activity [8] 77% | residual activity [9] 78% | residual activity [10] 87% | residual activity [11] 89% | residual activity [12] 95% | residual activity [13] 94% | residual activity [14] 97% | residual activity [15] 95% | residual activity [16] 100% | residual activity [17] 100% | residual activity [18] 100% | residual activity [19] 92% | residual activity [20] 81% | residual activity [21] 99% | residual activity [22] 72% | residual activity [23] 100% | residual activity [24] 100% | residual activity [25] 100% | residual activity [26] 97% | residual activity [27] 91% | residual activity [28] 75% | residual activity [29] 100% | residual activity [30] 100% | residual activity [31] 100% | residual activity [32] 96% | residual activity [33] 100% | residual activity [34] 100% | residual activity [35] 100% | residual activity [36] 86% | residual activity [37] 100% | inhibition [38] 13.6% | residual activity [39] 90% | residual activity [40] 100% | residual activity [41] 100% | residual activity [42] 100% | inhibition [43] 4.05% | residual activity [44] 75% | residual activity [45] 100% | inhibition [46] 3.32%
